Test [1] deals with Casein kinase I isoform epsilon (Homo sapiens, UniProt P49674).
Test [2] concerns the target Cyclin-dependent kinase 5/CDK5 activator 1 (Homo sapiens, UniProt Q00535). Type of test: cell-based, Sf9.
For test [3], the target named is Dual specificity protein kinase CLK2 (Homo sapiens, UniProt P49760).
Test [4] has as its target Dual specificity protein kinase CLK3 (Homo sapiens, UniProt P49761). Type of test: cell-based, Sf9.
Test [5] has as its target T1, Dual specificity tyrosine-phosphorylation-regulated kinase 2 (Homo sapiens, UniProt Q92630).
T1 sequence (Q92630 whole entry): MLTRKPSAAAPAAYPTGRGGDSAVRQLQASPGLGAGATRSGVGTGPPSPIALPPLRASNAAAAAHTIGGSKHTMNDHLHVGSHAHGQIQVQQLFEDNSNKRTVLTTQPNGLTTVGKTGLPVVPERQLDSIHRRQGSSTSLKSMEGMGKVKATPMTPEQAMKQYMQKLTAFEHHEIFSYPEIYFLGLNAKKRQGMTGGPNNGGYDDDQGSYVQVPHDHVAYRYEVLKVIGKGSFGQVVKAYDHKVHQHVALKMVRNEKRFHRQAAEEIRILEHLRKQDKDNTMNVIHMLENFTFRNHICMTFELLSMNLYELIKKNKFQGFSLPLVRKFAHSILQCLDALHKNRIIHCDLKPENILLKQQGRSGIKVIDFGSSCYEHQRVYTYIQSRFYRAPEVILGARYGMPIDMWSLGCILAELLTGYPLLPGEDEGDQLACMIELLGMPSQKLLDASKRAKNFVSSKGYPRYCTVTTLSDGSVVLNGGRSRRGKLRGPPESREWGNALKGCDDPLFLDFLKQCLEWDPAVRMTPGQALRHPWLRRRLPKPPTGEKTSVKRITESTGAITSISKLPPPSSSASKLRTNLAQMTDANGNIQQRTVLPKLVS

For test [6], the target named is T2, Dual specificity tyrosine-phosphorylation-regulated kinase 3 (Homo sapiens, UniProt O43781).
T2 sequence (O43781 whole entry): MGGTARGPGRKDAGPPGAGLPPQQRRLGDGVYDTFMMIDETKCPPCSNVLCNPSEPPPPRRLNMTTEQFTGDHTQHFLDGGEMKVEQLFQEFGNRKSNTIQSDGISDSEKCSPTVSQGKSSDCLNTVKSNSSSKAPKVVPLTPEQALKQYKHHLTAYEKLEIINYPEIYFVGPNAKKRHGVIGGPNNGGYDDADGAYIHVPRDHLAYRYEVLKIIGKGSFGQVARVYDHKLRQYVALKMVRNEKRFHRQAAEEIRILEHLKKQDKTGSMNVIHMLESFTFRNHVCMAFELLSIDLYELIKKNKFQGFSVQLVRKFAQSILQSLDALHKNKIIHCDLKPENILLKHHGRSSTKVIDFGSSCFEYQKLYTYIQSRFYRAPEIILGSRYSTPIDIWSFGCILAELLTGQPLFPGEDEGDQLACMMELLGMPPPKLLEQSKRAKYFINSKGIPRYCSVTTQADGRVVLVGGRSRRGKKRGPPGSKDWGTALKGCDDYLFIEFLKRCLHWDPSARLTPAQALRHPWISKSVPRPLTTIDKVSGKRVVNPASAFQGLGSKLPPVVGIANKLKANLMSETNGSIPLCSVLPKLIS

In test [7] the target is T3, Dual specificity tyrosine-phosphorylation-regulated kinase 4 (Homo sapiens, UniProt Q9NR20).
T3 sequence (Q9NR20 whole entry): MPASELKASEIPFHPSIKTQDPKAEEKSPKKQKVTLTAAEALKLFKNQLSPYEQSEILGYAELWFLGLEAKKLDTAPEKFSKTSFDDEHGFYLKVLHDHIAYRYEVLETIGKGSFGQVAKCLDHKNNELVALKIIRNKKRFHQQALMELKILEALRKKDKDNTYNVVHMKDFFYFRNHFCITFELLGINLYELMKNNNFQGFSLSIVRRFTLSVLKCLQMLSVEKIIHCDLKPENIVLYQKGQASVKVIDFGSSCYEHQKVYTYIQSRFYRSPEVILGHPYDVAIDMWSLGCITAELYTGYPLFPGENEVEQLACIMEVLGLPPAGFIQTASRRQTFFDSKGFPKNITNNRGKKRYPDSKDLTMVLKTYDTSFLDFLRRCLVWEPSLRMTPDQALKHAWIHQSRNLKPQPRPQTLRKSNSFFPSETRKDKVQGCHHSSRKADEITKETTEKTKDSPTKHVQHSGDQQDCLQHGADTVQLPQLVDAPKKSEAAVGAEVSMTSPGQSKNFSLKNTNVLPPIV

The target in test [8] is Glycogen synthase kinase-3 beta (Homo sapiens, UniProt P49841). Type of test: cell-based, Sf9.
Glycogen synthase kinase-3 beta, sequence (P49841 whole entry): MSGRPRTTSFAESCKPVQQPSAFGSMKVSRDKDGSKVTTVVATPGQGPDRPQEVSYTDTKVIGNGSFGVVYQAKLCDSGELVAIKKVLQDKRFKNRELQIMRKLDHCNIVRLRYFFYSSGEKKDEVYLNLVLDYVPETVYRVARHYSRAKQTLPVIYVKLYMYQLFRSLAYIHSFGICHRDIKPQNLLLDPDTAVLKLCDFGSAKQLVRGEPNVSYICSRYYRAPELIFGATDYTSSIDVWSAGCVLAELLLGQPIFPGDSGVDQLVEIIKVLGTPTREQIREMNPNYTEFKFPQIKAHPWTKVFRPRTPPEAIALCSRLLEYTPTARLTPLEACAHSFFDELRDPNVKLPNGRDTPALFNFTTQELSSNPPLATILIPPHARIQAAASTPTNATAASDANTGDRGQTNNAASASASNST

Dual specificity protein kinase CLK2, sequence (P49760 whole entry): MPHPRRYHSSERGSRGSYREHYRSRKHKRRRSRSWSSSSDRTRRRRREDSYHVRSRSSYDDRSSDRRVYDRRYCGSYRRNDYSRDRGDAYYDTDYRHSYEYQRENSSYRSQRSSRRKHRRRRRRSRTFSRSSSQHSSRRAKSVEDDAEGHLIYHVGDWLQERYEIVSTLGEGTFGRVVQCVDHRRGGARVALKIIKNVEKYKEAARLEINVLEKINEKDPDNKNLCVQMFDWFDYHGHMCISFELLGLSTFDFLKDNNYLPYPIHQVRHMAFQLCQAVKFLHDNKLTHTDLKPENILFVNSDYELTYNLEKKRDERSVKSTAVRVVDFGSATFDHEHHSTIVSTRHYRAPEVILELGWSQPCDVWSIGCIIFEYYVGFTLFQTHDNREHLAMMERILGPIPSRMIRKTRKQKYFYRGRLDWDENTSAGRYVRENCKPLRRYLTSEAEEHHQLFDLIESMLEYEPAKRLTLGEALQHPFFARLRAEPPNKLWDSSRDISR
Casein kinase I isoform epsilon, sequence (P49674 whole entry, canonical isoform): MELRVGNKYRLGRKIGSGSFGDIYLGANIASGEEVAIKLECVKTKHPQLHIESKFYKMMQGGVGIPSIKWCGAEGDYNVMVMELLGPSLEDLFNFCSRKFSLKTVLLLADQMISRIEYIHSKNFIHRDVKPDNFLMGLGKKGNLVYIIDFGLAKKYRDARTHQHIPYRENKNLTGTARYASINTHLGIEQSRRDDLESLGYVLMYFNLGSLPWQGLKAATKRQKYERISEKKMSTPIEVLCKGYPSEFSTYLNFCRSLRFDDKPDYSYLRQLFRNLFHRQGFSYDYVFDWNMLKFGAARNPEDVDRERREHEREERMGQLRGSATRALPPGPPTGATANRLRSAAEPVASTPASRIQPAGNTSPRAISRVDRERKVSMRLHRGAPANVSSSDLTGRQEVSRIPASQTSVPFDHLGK
Cyclin-dependent kinase 5/CDK5 activator 1, sequence (Q00535 whole entry): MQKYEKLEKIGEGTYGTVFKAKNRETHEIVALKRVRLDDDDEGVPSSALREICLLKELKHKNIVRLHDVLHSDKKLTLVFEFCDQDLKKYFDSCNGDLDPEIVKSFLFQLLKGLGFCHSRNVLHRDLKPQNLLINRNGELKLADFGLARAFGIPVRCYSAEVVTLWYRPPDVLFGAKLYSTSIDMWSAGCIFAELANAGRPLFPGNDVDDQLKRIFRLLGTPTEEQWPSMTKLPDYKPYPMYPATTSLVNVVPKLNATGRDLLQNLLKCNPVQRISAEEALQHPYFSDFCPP
Cyclin-dependent kinase 5/CDK5 activator 1, sequence (Q15078 whole entry, further chain): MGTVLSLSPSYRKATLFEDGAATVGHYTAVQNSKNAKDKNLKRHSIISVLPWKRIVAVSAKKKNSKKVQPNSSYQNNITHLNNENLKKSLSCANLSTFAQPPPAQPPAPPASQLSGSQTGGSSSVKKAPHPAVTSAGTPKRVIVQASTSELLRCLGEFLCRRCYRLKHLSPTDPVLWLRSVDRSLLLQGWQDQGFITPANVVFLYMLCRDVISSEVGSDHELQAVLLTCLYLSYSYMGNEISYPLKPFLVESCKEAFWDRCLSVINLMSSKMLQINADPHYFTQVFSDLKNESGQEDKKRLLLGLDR
Dual specificity protein kinase CLK3, sequence (P49761 whole entry): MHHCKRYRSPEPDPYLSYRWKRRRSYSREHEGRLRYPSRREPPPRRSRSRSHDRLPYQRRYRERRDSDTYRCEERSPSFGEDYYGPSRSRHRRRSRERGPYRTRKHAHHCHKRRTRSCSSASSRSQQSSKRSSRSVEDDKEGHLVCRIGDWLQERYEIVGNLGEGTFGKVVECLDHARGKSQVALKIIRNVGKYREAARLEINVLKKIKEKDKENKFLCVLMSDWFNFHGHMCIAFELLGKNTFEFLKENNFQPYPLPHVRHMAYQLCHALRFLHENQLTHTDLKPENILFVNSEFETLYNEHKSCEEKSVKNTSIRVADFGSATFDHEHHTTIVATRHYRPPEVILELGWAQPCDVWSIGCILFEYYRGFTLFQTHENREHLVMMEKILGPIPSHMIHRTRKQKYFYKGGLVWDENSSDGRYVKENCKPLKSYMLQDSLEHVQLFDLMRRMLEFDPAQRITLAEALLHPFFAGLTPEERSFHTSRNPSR

The term IC50 denotes the concentration that gives 50% inhibition. Lower therefore signals greater potency. As to `CN1CCN(c2cnc(NC3=N/C(=C\c4ccc5ncsc5c4)C(=O)N3)nc2)CC1`, the IC50 in test [1] is > 10000 nM; in test [2] it was > 10000 nM; in test [3] it was 997 nM; in test [4], 5100 nM; in test [5], 7480 nM; in test [6] it was 450 nM. The IC50 in test [7] and in test [8] was > 10000 nM in each case.

For the molecule `O=C1NC(NCc2ccccc2C(F)(F)F)=N/C1=C\c1ccc2ncsc2c1`, the IC50 in test [1] was > 10000 nM; in test [2], > 10000 nM; in test [3] it was 15 nM; in test [4] it was 135 nM; in test [6] it was 434 nM; in test [7], 2550 nM. Further, the IC50 in test [8] came to 6920 nM.

On to `CO[C@@H]1CCCC[C@H]1NC1=N/C(=C\c2ccc3ncsc3c2)C(=O)N1`, for which the IC50 was > 10000 nM in test [2]; 310 nM in test [3]; 382 nM in test [4]; 342 nM in test [5]; 1360 nM in test [6]; 551 nM in test [7]. Also, the 50% inhibitory concentration (IC50) in test [8] was > 10000 nM.

For `O=C1NC(N[C@@H]2CCCC[C@@H](O)C2)=N/C1=C\c1ccc2ncsc2c1` (racemic), the IC50 in test [2] is > 10000 nM; in test [4], 309 nM; in test [5], 258 nM; in test [6], 706 nM; in test [7], 1250 nM; in test [8], 4370 nM.

For `O=C1NC(NC2CCCCC2(F)F)=N/C1=C\c1ccc2ncsc2c1` (racemic), the IC50 in test [1] was > 10000 nM; in test [2], > 10000 nM; in test [3], 28 nM; in test [4], 127 nM; in test [6] it was 119 nM; in test [7], 143 nM. Besides, half-maximal inhibition in test [8] (IC50) was put at 5560 nM.

Consider `O=C1NC(Nc2ccccn2)=N/C1=C\c1ccc2ncsc2c1`, for which the IC50 is > 10000 nM in test [1]; > 10000 nM in test [2]; 117 nM in test [3]; 211 nM in test [4]; 256 nM in test [5]; 350 nM in test [6]. In test [8], the IC50 amounted to 1660 nM.

Regarding `O=C1NC(N[C@@H](CO)CC2CCC2)=N/C1=C\c1ccc2ncsc2c1`, the IC50 in test [1] is > 10000 nM; in test [2] it was > 10000 nM; in test [4] it was 720 nM; in test [5], 1910 nM; in test [6], 1250 nM; in test [7], 1670 nM. In addition, in test [8], it took 2410 nM to reach half-maximal inhibition (IC50).

As to `O=C1NC(NC2CC23CCCCC3)=N/C1=C\c1ccc2ncsc2c1` (centres undefined), the IC50 in test [1] is > 10000 nM; in test [2], > 10000 nM; in test [4], 341 nM; in test [5], 355 nM; in test [6], 343 nM; in test [7], 938 nM. In test [8], the midpoint of inhibition, the IC50, lay at 854 nM.

As to `Cc1csc(CNC2=N/C(=C\c3ccc4ncsc4c3)C(=O)N2)n1`, the IC50 in test [1] is > 10000 nM; in test [2], > 10000 nM; in test [3], 33 nM; in test [4], 376 nM; in test [6], 1800 nM; in test [7], 954 nM. Inhibition in test [8] was half-maximal at 2150 nM (IC50).

`O=C1NC(N[C@@H]2CCCC[C@H](O)C2)=N/C1=C\c1ccc2ncsc2c1` (racemic): the IC50 in test [2] was > 10000 nM; in test [4], 646 nM; in test [5] it was 174 nM; in test [6], 753 nM; in test [7] it was 698 nM; in test [8] it was 6040 nM.

For `CC(C)(C)OC(=O)N1CCC(CNC2=N/C(=C\c3ccc4ncsc4c3)C(=O)N2)CC1`, the IC50 in test [1] was > 10000 nM; in test [2], > 10000 nM; in test [3] it was 2200 nM; in test [4] it was 8620 nM; in test [6], > 10000 nM; in test [7], > 10000 nM. In addition, half-maximal inhibition in test [8] (IC50) required 5270 nM.

On to `CO[C@H]1CCCC[C@@H]1NC1=N/C(=C\c2ccc3ncsc3c2)C(=O)N1`, for which the IC50 in test [2] was > 10000 nM; in test [3] it was 100 nM; in test [4] it was 628 nM; in test [5], 777 nM; in test [6] it was 1200 nM; in test [7], 439 nM. Besides, the IC50 in test [8] worked out at 8750 nM.

In the case of `O=C1NC(N[C@@H](CO)CC2CCCC2)=N/C1=C\c1ccc2ncsc2c1`, the IC50 in test [1] was > 10000 nM; in test [2], > 10000 nM; in test [3], 40 nM; in test [4] it was 1460 nM; in test [5] it was 4010 nM; in test [7], 1720 nM. The molecule further returned an IC50 in test [8] of 2870 nM.

Take `COC[C@H](NC1=N/C(=C\c2ccc3ncsc3c2)C(=O)N1)c1ccccc1`: the IC50 is > 10000 nM in test [1]; > 10000 nM in test [2]; 15 nM in test [3]; 127 nM in test [4]; 159 nM in test [5]; 335 nM in test [7]. In addition, 5170 nM corresponded to half-maximal inhibition in test [8] (IC50).

With `O=C1NC(N[C@@H](CO)CC2CC2)=N/C1=C\c1ccc2ncsc2c1`, the IC50 in test [1] is > 10000 nM; in test [2], > 10000 nM; in test [3], 42 nM; in test [4], 686 nM; in test [5], 8210 nM; in test [7] it was 731 nM. The 50% inhibitory concentration (IC50) in test [8] stood at 4390 nM.

Consider `CC[C@H](CO)NC1=N/C(=C\c2ccc3ncsc3c2)C(=O)N1`, for which the half-inhibitory concentration (IC50) in test [1] was > 10000 nM; in test [2] it was > 10000 nM; in test [3] it was 216 nM; in test [4], 1150 nM; in test [5], 1550 nM; in test [7], 1600 nM. Moreover, the IC50 in test [8] was > 10000 nM.

Consider `CO[C@H]1CCCC[C@H]1NC1=N/C(=C\c2ccc3ncsc3c2)C(=O)N1` (racemic), for which the IC50 in test [2] was > 10000 nM; in test [3], 648 nM; in test [4], 1130 nM; in test [5], 1570 nM; in test [6] it was 1060 nM; in test [7], 731 nM. This molecule also came in with an IC50 in test [8] of 9540 nM.

Turning to `C[C@@H]1[C@H]2C[C@@H](C[C@H]1NC1=N/C(=C\c3ccc4ncsc4c3)C(=O)N1)C2(C)C`, the IC50 in test [1] is > 10000 nM; in test [2], > 10000 nM; in test [4] it was 795 nM; in test [6], 1010 nM; in test [7], 719 nM; in test [8] it was > 10000 nM.

For `Cn1ccc(NC2=N/C(=C\c3ccc4ncsc4c3)C(=O)N2)n1`, the IC50 is > 10000 nM in test [1]; > 10000 nM in test [2]; 111 nM in test [3]; 201 nM in test [4]; 1130 nM in test [5]; 4160 nM in test [7]. The same molecule displayed an IC50 in test [8] of 2580 nM.

Consider `Cc1ccc(CNC2=N/C(=C\c3ccc4ncsc4c3)C(=O)N2)c(C)c1`, for which the IC50 in test [1] was > 10000 nM; in test [2], > 10000 nM; in test [4] it was 518 nM; in test [6], 4200 nM; in test [7], 9220 nM; in test [8], > 10000 nM.

In the case of `O=C1NC(Nc2cccc(OC(F)F)c2)=N/C1=C\c1ccc2ncsc2c1`, the IC50 in test [2] is > 10000 nM; in test [3], 134 nM; in test [4], 710 nM; in test [5], 760 nM; in test [6], 706 nM; in test [7], 2730 nM. The molecule also showed an IC50 in test [8] of 3680 nM.
